Data as given in PMC12308805, “Ultrahigh-Throughput Virtual Screening Strategies against PPI Targets: A Case Study of STAT Inhibitors” (Journal of Chemical Information and Modeling, 2025).
Read-outs that look alike come from different tables or passages of the source. Values belong to the compound of their own block, whether it stands above or below them. Square brackets hold non-standard residues; d marks the D form. Peptide text beside a SMILES is read from it. * marks the point of attachment. pY = N[C@@H](Cc1ccc(OP(=O)(O)O)cc1)C(=O)O; Isobutyryl = CC(C)C(=O)*; βNA = c1ccc2cc(N*)ccc2c1

Experiments:
[1] = target: T1, STAT3 (127–770) SH2 domain (Homo sapiens, UniProt P40763); experiment: Fluorescence polarization assay (FP-assay), STAT3 SH2 domain; format: binding; design: key to identified as active in FP-assay: A compound was identified as active, if it had a mean IC50 value under 100 μM; details: for IC50: FP-assay, mean IC50, at least three biological replicates
T1 construct: For STAT3 (127–770), the final concentration of the protein was 200 nM; made in house
Description: The respective protocols for the expression and purification of the STAT3 SH2 and STAT5b SH2 domains were published in our recent works. Fluorescence polarization assays (FP-assays) were performed on a Molecular Devices SpectraMax iD5Multimode Microplate Reader (San Jose, CA, USA) using Greiner black 384-well flat-bottom nonbinding microplates with 40 μL final well volumes. The fluorescent peptides (5-FAM-G(pTyr)-LPQTV-NH2 and 5-FAM-G(pTyr)-LVLDKW-NH2, purchased from GenScript Biotech Ltd., Piscataway, NJ, USA), as well as the proteins, were diluted with a buffer containing 50 mM NaCl, 10 mM HEPES (4-(2-hydroxyethyl)-1-piperazineethanesulfonic acid), 1 mM EDTA (ethylenediaminetetraacetic acid), 2 mM DTT (dithiothreitol), and 0.1% Triton X-100, pH 7.5. For STAT3 (127–770), the final concentration of the protein was 200 nM, and the fluorescent peptide (5-FAM-G(pTyr)-LPQTV-NH2) was added at a final concentration of 5 nM; for STAT5b (136–703), the final concentration of the protein was 500 nM, and the fluorescent peptide (5-FAM-G(pTyr)-LVLDKW-NH2) was added at a final concentration of 10 nM. The wells were treated with varying concentrations of inhibitors (1250 to 0.11 μM final concentrations). The final DMSO content was 2.5%. After mixing, the protein and inhibitors were incubated at room temperature for 30 min, then the fluorescent peptide was added, and the plate was incubated for another 20 min prior to the fluorescence readout (extinction wavelength: 475 nm, emission wavelength: 520 nm). The measurements were carried out in at least three biological replicates. Fluorescence polarization was calculated from the perpendicular and parallel fluorescence intensities and then plotted against concentration. The IC50 values were determined after fitting quadratic dose–response curves on the data points in GraphPad Prism 8.0.1. […] All plotted curves and data points for the hit compounds are included in Section 2 of the Supporting Information.

STAT3 = details: cited from earlier work; for Type: retrospective screening set for STAT3 SH2 domain (PDB 6QHD), ref DUD-E
[2] = sheet 6QHD_actives_decoys, known STAT3 actives of the retrospective screening set, ref ChEMBL / literature
[3] = sheet 6QHD_actives_decoys, decoys generated with DUD-E and presumed inactive, not tested
[4] = sheet 6QHD_actives_decoys, decoys are presumed inactives, not tested

T1 sequence (P40763 127-770): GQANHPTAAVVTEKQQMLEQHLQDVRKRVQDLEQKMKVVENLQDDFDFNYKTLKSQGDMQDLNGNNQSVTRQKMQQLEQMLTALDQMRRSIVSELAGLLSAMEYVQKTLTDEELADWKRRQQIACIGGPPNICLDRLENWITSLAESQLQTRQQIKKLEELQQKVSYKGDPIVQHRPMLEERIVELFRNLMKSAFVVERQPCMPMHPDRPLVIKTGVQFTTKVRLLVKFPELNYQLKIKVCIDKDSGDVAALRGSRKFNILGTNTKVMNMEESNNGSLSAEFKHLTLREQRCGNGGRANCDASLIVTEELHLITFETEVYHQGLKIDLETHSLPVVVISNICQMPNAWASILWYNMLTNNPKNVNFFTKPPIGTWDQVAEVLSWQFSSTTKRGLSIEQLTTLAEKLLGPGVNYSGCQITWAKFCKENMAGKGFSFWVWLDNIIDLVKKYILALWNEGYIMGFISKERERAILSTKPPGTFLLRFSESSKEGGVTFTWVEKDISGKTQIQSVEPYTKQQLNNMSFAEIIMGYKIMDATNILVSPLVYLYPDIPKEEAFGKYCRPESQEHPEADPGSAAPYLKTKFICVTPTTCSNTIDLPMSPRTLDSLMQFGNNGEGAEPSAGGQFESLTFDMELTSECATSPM

identified as active in FP-assay [1]: active
IC50 [1]: 53.2 ± 46.9 µM
Structure (SMILES): O=C(O)c1[nH]c2ccccc2c1C(=O)O [S3_M5, [OH]C(=O)c([nH]1)c(C(=O)[OH])c(c12)cccc2]

identified as active in FP-assay [1]: active
IC50 [1]: 64.4 ± 17.7 µM
Structure (SMILES): O=C(O)CCCn1ccc2c(nnc3ccnn32)c1=O [S3_M13, n1ccc(nn2)n1c(c23)ccn(c3=O)CCCC([OH])=O]

Structure (SMILES): Nc1ccc(C(=O)O)c(C(=O)O)c1 [S3_M15, Nc1cc(C([OH])=O)c(C([OH])=O)cc1]
identified as weakly binding in FP-assay [1]: weakly binding (A weakly binding compound (mean IC50 value higher than 100 μM))

IC50 [1]: 111 ± 64.7 µM
Structure (SMILES): Cc1cc(=O)c(C(=O)O)c(O)[nH]1 [S3_M16, [OH]C(=O)c1c(=O)cc(C)[nH]c1O]

identified as active in FP-assay [1]: active
IC50 [1]: 62.7 ± 25.1 µM
Structure (SMILES): Cc1cccc(OC[C@@H](O)CN(C(=O)NC[C@H]2CC(C(N)=O)=NO2)C(C)C)c1 [S3_E7, Cc1cc(ccc1)OC[C@@H](O)CN(C(C)C)C(=O)NC[C@H]2CC(=NO2)C(=O)N]

identified as active in FP-assay [1]: active
IC50 [1]: 21.7 ± 10.4 µM
Structure (SMILES): O=[N+]([O-])c1ccccc1S(=O)(=O)NC[C@H](O)COc1ccc2c(c1)OCO2 [S3_E6, O=[N+]([O-])c1ccccc1S(=O)(=O)NC[C@H](O)COc(cc2)cc(c23)OCO3]

Structure (SMILES): CNC(=O)[C@H](CCC(N)=O)NC(=O)[C@@H]1CCCN1C(=O)[C@H](CC(C)C)NC(=O)[C@H](Cc1ccc(OP(=O)(O)O)cc1)NC(C)=O [CHEMBL370095] (Ac-[pY]LPQ-NHMe)
Type (known STAT3 active) (STAT3; [2]): Active

Structure (SMILES): Nc1nc(OCc2cc(Br)cs2)c2ncn(CCCCCCCCO[C@@H]3O[C@@H](CO)[C@@H](O)[C@@H](O)[C@H]3O)c2n1 [Decoy330]
Type (STAT3; [3]): Inactive (Decoy)

Structure (SMILES): CC(=O)c1cccc(S(=O)(=O)NCCC(=O)Nc2ccc(S(=O)(=O)/N=C3\CCCCCN3)cc2)c1 [Decoy783]
Type (STAT3; [4]): Inactive (Decoy)

Structure (SMILES): CC(C)C[C@H](NC(=O)/C=C/c1ccc(OP(=O)(O)O)cc1)C(=O)N1CCC[C@H]1C(=O)N[C@H](C)COC(N)=O [CHEMBL584376]
Type (known STAT3 active) (STAT3): Active

Structure (SMILES): NCCCC[C@H](NC(=O)[C@@H](CC(=O)O)NC(=O)[C@@H](CC(=O)O)NC(=O)[C@@H](CC(=O)O)NC(=O)[C@@H](CC(=O)O)NC(=O)CN)C(=O)Nc1ccc2ccccc2c1 [Decoy438] (H-G[dD][dD][dD][dD]K-βNA)
Type (STAT3; sheet 6QHD_actives_decoys, […]): Inactive (Decoy)

Structure (SMILES): CCOc1cccc(/C=N/NC(=O)CSc2nnc(-c3cc(OC)c(OC)c(OC)c3)n2-c2ccccc2)c1O [Decoy798]
Type (STAT3; [4]): Inactive (Decoy)

Structure (SMILES): CC(C)C[C@H](NC(=O)/C=C/c1ccc(OP(=O)(O)O)cc1)C(=O)N1CCC[C@H]1C(=O)N[C@@H](CCC(N)=O)[C@@H](C)OCc1ccccc1 [CHEMBL583758]
Type (known STAT3 active) (STAT3): Active

Structure (SMILES): COc1ccc([C@H](C(=O)NCS(=O)(=O)c2ccc(C)cc2)N(Cc2ccco2)C(=O)CCl)cc1 [Decoy337]
Type (STAT3; [3]): Inactive (Decoy)

Structure (SMILES): CCCC[C@H](CCC(N)=O)NC(=O)[C@@H]1[C@@H]2C[C@@H]2CN1C(=O)[C@H](CC(C)C)NC(=O)/C=C/c1ccc(OP(=O)(O)O)cc1 [CHEMBL583116]
Type (known STAT3 active) (STAT3; [2]): Active

Structure (SMILES): CC[C@@H](C)[C@@H](NC(=O)CNC(=O)CCc1c(C)c2cc3c(C)coc3c(C)c2oc1=O)C(=O)O [Decoy649]
Type (STAT3; [3]): Inactive (Decoy)

Structure (SMILES): Cc1ccc(S(=O)(=O)N[C@]2(C(F)(F)F)C(=O)Nc3c2c(=O)nc(O)n3-c2ccccc2)cc1 [Decoy629]
Type (STAT3; sheet 6QHD_actives_decoys, […]): Inactive (Decoy)

Structure (SMILES): CC(=O)Nc1ccc(S(=O)(=O)NCCCCNc2ccc([N+](=O)[O-])c3cccnc23)cc1 [Decoy809]
Type (STAT3; [4]): Inactive (Decoy)

Structure (SMILES): C=CCSc1ccccc1NC(=O)CSc1nnc(N/N=C/c2c(O)ccc3ccccc23)n1N [Decoy924]
Type (STAT3; [4]): Inactive (Decoy)

Structure (SMILES): O[C@H](CNCCOc1ccccc1OCCNC[C@H](O)COc1cccc2[nH]c3ccccc3c12)COc1cccc2[nH]c3ccccc3c12 [Decoy828]
Type (STAT3; [4]): Inactive (Decoy)

Structure (SMILES): CNC(=O)[C@H](CC(C)C)NC(=O)[C@H](Cc1c[nH]cn1)NC(=O)[C@@H](C)NC(=O)[C@@H](NC(=O)[C@H](C)NC(=O)[C@H](Cc1c[nH]c2ccccc12)NC(=O)[C@H](Cc1c[nH]cn1)NC(=O)C(C)C)C(C)C [Decoy804] (Isobutyryl-HWAV[dA]HL-NHMe)
Type (STAT3; [4]): Inactive (Decoy)

Structure (SMILES): Cc1ccc(S(=O)(=O)CNC(=O)[C@H](c2ccc([N+](=O)[O-])cc2)N(Cc2ccco2)C(=O)CO)cc1 [Decoy577]
Type (STAT3; [3]): Inactive (Decoy)

Structure (SMILES): Cc1cc(NS(=O)(=O)c2ccc(NC(=O)CCCCC(=O)Nc3ccc(S(=O)(=O)Nc4cc(C)on4)cc3)cc2)no1 [Decoy592]
Type (STAT3; sheet 6QHD_actives_decoys, […]): Inactive (Decoy)

Structure (SMILES): CCCC(=O)C1=C(N2CCN(C3=C(C(=O)CCC)C(O)=C(C(=O)OC)C(C)(C)C3)CC2)CC(C)(C)[C@H](C(=O)OC)C1=O [Decoy436]
Type (STAT3; [3]): Inactive (Decoy)

Structure (SMILES): CCCC[C@@]1(c2ccc(F)cc2)NC(=O)N(CC(=O)Nc2ccc(S(=O)(=O)N(CC)CC)cc2)C1=O [Decoy682]
Type (STAT3; [3]): Inactive (Decoy)

Structure (SMILES): Cc1ccc(S(=O)(=O)OC[C@H](OS(=O)(=O)c2ccc(C)cc2)[C@H](O)[C@H](O)[C@@H](COS(=O)(=O)c2ccc(C)cc2)OS(=O)(=O)c2ccc(C)cc2)cc1 [Decoy424]
Type (STAT3; [3]): Inactive (Decoy)

Structure (SMILES): Cc1cc(NS(=O)(=O)c2ccc(NC(=S)NC(=O)COc3ccc([N+](=O)[O-])cc3)cc2)no1 [Decoy494]
Type (STAT3; sheet 6QHD_actives_decoys, […]): Inactive (Decoy)

Structure (SMILES): Cc1nn(-c2cc(Cl)c(S(=O)(=O)O)cc2Cl)c(O)c1/N=N/c1cccc(S(=O)(=O)O)c1 [Decoy763]
Type (STAT3; [4]): Inactive (Decoy)

Structure (SMILES): CC[C@H](C)[C@H](NC(=O)CNC(=O)CCc1c(C)c2cc3c(C)c(C)oc3c(C)c2oc1=O)C(=O)NCCCCCC(=O)O [Decoy720]
Type (STAT3; [3]): Inactive (Decoy)

Structure (SMILES): C1=Cc2nc1cc1ccc([nH]1)c(-c1ccccc1)c1nc(cc3ccc([nH]3)c2-c2ccccc2)C=C1 [CHEMBL207155]
Type (known STAT3 active) (STAT3; [2]): Active

Structure (SMILES): CN(Cc1cnc2nc(N)nc(N)c2n1)c1ccc(C(=O)N[C@H](CCC(=O)NCCNC(=O)CCCC[C@@H]2SC[C@@H]3NC(=O)N[C@@H]32)C(=O)O)cc1 [Decoy821]
Type (STAT3; [4]): Inactive (Decoy)

Structure (SMILES): O=C(NCCNc1ccc(C(F)(F)F)cc1[N+](=O)[O-])c1ccc(CSc2ncn[nH]2)cc1 [Decoy448]
Type (STAT3; sheet 6QHD_actives_decoys, […]): Inactive (Decoy)

Structure (SMILES): COc1ccccc1[C@H](O)CNC(=O)c1cc(NS(=O)(=O)c2cccc([N+](=O)[O-])c2)ccc1O [Decoy566]
Type (STAT3; sheet 6QHD_actives_decoys, […]): Inactive (Decoy)

Structure (SMILES): CC(=O)OC[C@@H]1O[C@H](n2c(=O)[nH]c(=O)c3n[nH]nc32)[C@@H](OC(C)=O)[C@H](OC(C)=O)[C@H]1OC(C)=O [Decoy545]
Type (STAT3; [3]): Inactive (Decoy)

Structure (SMILES): COc1ccc2[nH]cc(CCN/C(=N/C(=O)/C=C/c3cc(OC)c(OC)c(OC)c3)Nc3nc(C)cc(C)n3)c2c1 [Decoy944]
Type (STAT3; [4]): Inactive (Decoy)

Structure (SMILES): COc1cc([C@H]2c3cc(OC)c(O[C@H]4O[C@@H](CO)[C@@H](O)[C@@H](O)[C@H]4O)c(OC)c3C[C@@H](CO)[C@@H]2CO)cc(OC)c1O [Decoy823]
Type (STAT3; [4]): Inactive (Decoy)

Structure (SMILES): CCOC(=O)c1sc(Nc2ccc(NC(=O)C[C@@H](NCCOC)C(=O)O)cc2)nc1C [Decoy654]
Type (STAT3; [3]): Inactive (Decoy)

Structure (SMILES): CN(Cc1cnc2nc(N)nc(N)c2n1)c1ccc(C(=O)N[C@H](CCC(=O)NCCNC(=O)CCCC[C@@H]2SC[C@@H]3NC(=O)N[C@@H]32)C(=O)O)cc1 [Decoy666]
Type (STAT3; [3]): Inactive (Decoy)

Structure (SMILES): CCOC(=O)c1sc(N/N=C(\C(=O)Nc2cccc(OC)c2)C(=O)c2ccc([N+](=O)[O-])cc2)c(C(=O)OCC)c1C [Decoy517]
Type (STAT3; [3]): Inactive (Decoy)

Structure (SMILES): CC[C@@]1(c2ccccc2)NC(=O)N(CC(=O)Nc2ccc(S(=O)(=O)Nc3ncccn3)cc2)C1=O [Decoy743]
Type (STAT3; [4]): Inactive (Decoy)

Structure (SMILES): CC(=O)N[C@@H](Cc1ccc(OP(=O)(O)O)cc1)C(=O)N[C@@H](CC(C)C)C(=O)N1CCC[C@H]1C(=O)N[C@@H](CCC(N)=O)C(=O)O [CHEMBL382544] (Ac-[pY]LPQ-OH)
Type (known STAT3 active) (STAT3; [2]): Active

Structure (SMILES): COCCN1C(=O)c2cc(C(=O)Nc3ccc(OC)c(OC)c3)ccc2[C@H]1Nc1ccc(OC)c(OC)c1 [Decoy447]
Type (STAT3; [3]): Inactive (Decoy)

Structure (SMILES): C=CCOC(=O)[C@H]1O[C@@H](OC(=O)c2cc(S(N)(=O)=O)c(Cl)cc2NCc2ccco2)[C@H](O)[C@@H](O)[C@@H]1O [Decoy370]
Type (STAT3; [3]): Inactive (Decoy)

Structure (SMILES): Cc1cccn2c(=O)c(/C=C3\SC(=S)N(CCCCCC(=O)O)C3=O)c(NCCN3CCOCC3)nc12 [Decoy714]
Type (STAT3; [3]): Inactive (Decoy)
